Tests used:
Type in all cases: functional, cell-based
MDA-MB-231 = experiment: Cytotoxicity in human MDA-MB-231 cells assessed as reduction in cell viability incubated for 24 hrs by MTT assay; conditions: MDA-MB-231, 24 h
MCF7 = experiment: Cytotoxicity in human MCF7 cells assessed as reduction in cell viability incubated for 24 hrs by MTT assay; conditions: MCF7, 24 h
TERT-RPE1 = experiment: Cytotoxicity in human hTERT-RPE1 cells assessed as reduction in cell viability incubated for 24 hrs by MTT assay; conditions: RPE-1, 24 h
BGC-823 = experiment: Cytotoxicity in human BGC823 cells assessed as reduction in cell viability incubated for 72 hrs by MTT assay; conditions: BGC-823, 72 h
HeLa = experiment: Cytotoxicity in human HeLa cells assessed as reduction in cell viability incubated for 72 hrs by MTT assay
HT-29 = experiment: Cytotoxicity in human HT-29 cells assessed as reduction in cell viability incubated for 72 hrs by MTT assay; conditions: HT-29, 72 h
HepG2 = experiment: Cytotoxicity in human HepG2 cells assessed as reduction in cell viability incubated for 72 hrs by MTT assay; conditions: HepG2, 72 h

COC(=O)/C=C/c1ccc(OC)c(OC(=O)[C@@]2(C)CC[C@]3(C)CC[C@]4(C)C(=CC(=O)[C@@H]5[C@@]6(C)CC[C@H](OC(=O)[C@@H](N)CCSC)C(C)(C)[C@@H]6CC[C@]54C)[C@H]3C2)c1
IC50 (MDA-MB-231): 4.56 µM | IC50 (MCF7): 8.7 µM | IC50 (TERT-RPE1): 8.92 µM

COC(=O)/C=C/c1cccc(OC(=O)[C@@]2(C)CC[C@]3(C)CC[C@]4(C)C(=CC(=O)[C@@H]5[C@@]6(C)CC[C@H](OC(=O)[C@@H](N)CCSC)C(C)(C)[C@@H]6CC[C@]54C)[C@H]3C2)c1
IC50 (MDA-MB-231): 3.54 µM | IC50 (MCF7): 7.2 µM | IC50 (TERT-RPE1): 8.49 µM

C[C@H]1[C@H](C)CC[C@]2(C(=O)OCCCN3CCOCC3)CC[C@]3(C)C(=CC[C@@H]4[C@@]5(C)CC[C@H](O)C(C)(C)[C@@H]5CC[C@]43C)[C@H]12
IC50 (BGC-823): 7.3 µM

COC(=O)/C=C/c1ccc(OC(=O)[C@@]2(C)CC[C@]3(C)CC[C@]4(C)C(=CC(=O)[C@@H]5[C@@]6(C)CC[C@H](OC(=O)[C@@H](N)CC[Se]C)C(C)(C)[C@@H]6CC[C@]54C)[C@H]3C2)c(OC)c1
IC50 (MDA-MB-231): 1.37 µM | IC50 (MCF7): 1.88 µM | IC50 (TERT-RPE1): 4.93 µM

C[C@H]1[C@H](C)CC[C@]2(C(=O)OCCN3CCCC3)CC[C@]3(C)C(=CC[C@@H]4[C@@]5(C)CC[C@H](O)C(C)(C)[C@@H]5CC[C@]43C)[C@H]12
IC50 (BGC-823): 4.5 µM

C[C@H]1[C@H](C)CC[C@]2(C(=O)OCCCCN3CCCCC3)CC[C@]3(C)C(=CC[C@@H]4[C@@]5(C)CC[C@H](O)C(C)(C)[C@@H]5CC[C@]43C)[C@H]12
IC50 (BGC-823): 5 µM

C[C@H]1[C@H](C)CC[C@]2(C(=O)OCCCN3CCCCC3)CC[C@]3(C)C(=CC[C@@H]4[C@@]5(C)CC[C@H](O)C(C)(C)[C@@H]5CC[C@]43C)[C@H]12
IC50 (BGC-823): 7.2 µM

COC(=O)/C=C/c1ccc(OC(=O)[C@@]2(C)CC[C@]3(C)CC[C@]4(C)C(=CC(=O)[C@@H]5[C@@]6(C)CC[C@H](OC(=O)[C@@H](N)CCSC)C(C)(C)[C@@H]6CC[C@]54C)[C@H]3C2)cc1
IC50 (MDA-MB-231): 6.43 µM | IC50 (MCF7): 7.24 µM | IC50 (TERT-RPE1): 8.48 µM

COC(=O)/C=C/c1cccc(OC(=O)[C@@]2(C)CC[C@]3(C)CC[C@]4(C)C(=CC(=O)[C@@H]5[C@@]6(C)CC[C@H](OC(=O)[C@@H](N)CC[Se]C)C(C)(C)[C@@H]6CC[C@]54C)[C@H]3C2)c1
IC50 (MDA-MB-231): 2.46 µM | IC50 (MCF7): 3.48 µM | IC50 (TERT-RPE1): 4.55 µM

CCOC(=O)/C=C/c1cccc(OC(=O)[C@@]2(C)CC[C@]3(C)CC[C@]4(C)C(=CC(=O)[C@@H]5[C@@]6(C)CC[C@H](OC(=O)[C@@H](N)CCSC)C(C)(C)[C@@H]6CC[C@]54C)[C@H]3C2)c1
IC50 (MDA-MB-231): 1.92 µM | IC50 (MCF7): 5.79 µM | IC50 (TERT-RPE1): 6.63 µM

C[C@H]1[C@H](C)CC[C@]2(C(=O)OCCCCBr)CC[C@]3(C)C(=CC[C@@H]4[C@@]5(C)CC[C@H](O)C(C)(C)[C@@H]5CC[C@]43C)[C@H]12 [BROMOBUTYL-3BETA-HYDROXY-URS-12-EN-28-OATE]
IC50 (BGC-823): 10 µM

CCOC(=O)/C=C/c1cccc(OC(=O)[C@@]2(C)CC[C@]3(C)CC[C@]4(C)C(=CC(=O)[C@@H]5[C@@]6(C)CC[C@H](OC(=O)[C@@H](N)CC[Se]C)C(C)(C)[C@@H]6CC[C@]54C)[C@H]3C2)c1
IC50 (MDA-MB-231): 1.53 µM | IC50 (MCF7): 2.57 µM | IC50 (TERT-RPE1): 3.7 µM

COC(=O)/C=C/c1ccc(OC)c(OC(=O)[C@@]2(C)CC[C@]3(C)CC[C@]4(C)C(=CC(=O)[C@@H]5[C@@]6(C)CC[C@H](OC(=O)[C@@H](N)CC[Se]C)C(C)(C)[C@@H]6CC[C@]54C)[C@H]3C2)c1
IC50 (MDA-MB-231): 3.13 µM | IC50 (MCF7): 5.12 µM | IC50 (TERT-RPE1): 9.79 µM

C[C@H]1[C@H](C)CC[C@]2(C(=O)OCCBr)CC[C@]3(C)C(=CC[C@@H]4[C@@]5(C)CC[C@H](O)C(C)(C)[C@@H]5CC[C@]43C)[C@H]12
IC50 (BGC-823): 12.4 µM

CC(=O)OC[C@@]1(C)[C@@H]2CC[C@]3(C)[C@H](CC=C4[C@@H]5[C@@H](C)[C@H](C)CC[C@]5(C(=O)NO)CC[C@]43C)[C@@]2(C)C[C@@H](OC(C)=O)[C@@H]1OC(C)=O
IC50 (HeLa): 1.62 µM

C[C@H]1[C@H](C)CC[C@]2(C(=O)OCCN3CCOCC3)CC[C@]3(C)C(=CC[C@@H]4[C@@]5(C)CC[C@H](O)C(C)(C)[C@@H]5CC[C@]43C)[C@H]12
IC50 (BGC-823): 8.8 µM

CCOC(=O)/C=C/c1ccc(OC(=O)[C@@]2(C)CC[C@]3(C)CC[C@]4(C)C(=CC(=O)[C@@H]5[C@@]6(C)CC[C@H](OC(=O)[C@@H](N)CCSC)C(C)(C)[C@@H]6CC[C@]54C)[C@H]3C2)c(OC)c1
IC50 (MDA-MB-231): 5.36 µM | IC50 (MCF7): 8.62 µM | IC50 (TERT-RPE1): 16.3 µM

C[C@H]1[C@H](C)CC[C@]2(C(=O)OCCCBr)CC[C@]3(C)C(=CC[C@@H]4[C@@]5(C)CC[C@H](O)C(C)(C)[C@@H]5CC[C@]43C)[C@H]12 [BROMOPROPYL-3BETA-HYDROXY-URS-12-EN-28-OATE]
IC50 (BGC-823): 6.5 µM

CCOC(=O)/C=C/c1ccc(OC(=O)[C@@]2(C)CC[C@]3(C)CC[C@]4(C)C(=CC(=O)[C@@H]5[C@@]6(C)CC[C@H](OC(=O)[C@@H](N)CC[Se]C)C(C)(C)[C@@H]6CC[C@]54C)[C@H]3C2)c(OC)c1
IC50 (MDA-MB-231): 3.49 µM | IC50 (MCF7): 8.45 µM | IC50 (TERT-RPE1): 12.3 µM

C[C@H]1[C@H](C)CC[C@]2(C(=O)OCCCCN3CCOCC3)CC[C@]3(C)C(=CC[C@@H]4[C@@]5(C)CC[C@H](O)C(C)(C)[C@@H]5CC[C@]43C)[C@H]12
IC50 (BGC-823): 6.5 µM

CCOC(=O)/C=C/c1ccc(OC(=O)[C@@]2(C)CC[C@]3(C)CC[C@]4(C)C(=CC(=O)[C@@H]5[C@@]6(C)CC[C@H](OC(=O)[C@@H](N)CCSC)C(C)(C)[C@@H]6CC[C@]54C)[C@H]3C2)cc1
IC50 (MDA-MB-231): 2.31 µM | IC50 (MCF7): 2.65 µM | IC50 (TERT-RPE1): 5.65 µM

COC(=O)/C=C/c1ccc(OC(=O)[C@@]2(C)CC[C@]3(C)CC[C@]4(C)C(=CC(=O)[C@@H]5[C@@]6(C)CC[C@H](OC(=O)[C@@H](N)CCSC)C(C)(C)[C@@H]6CC[C@]54C)[C@H]3C2)c(OC)c1
IC50 (MDA-MB-231): 3.52 µM | IC50 (MCF7): 6 µM | IC50 (TERT-RPE1): 10.4 µM

C[C@H]1[C@H](C)CC[C@]2(C(=O)OCCCN3CCCC3)CC[C@]3(C)C(=CC[C@@H]4[C@@]5(C)CC[C@H](O)C(C)(C)[C@@H]5CC[C@]43C)[C@H]12
IC50 (BGC-823): 7.6 µM

Cc1nc(C)c(COC(=O)[C@]23CCC(C)(C)C[C@H]2C2=CC[C@@H]4[C@@]5(C)CC[C@H](OC(=O)[C@H](C)N)C(C)(C)[C@@H]5CC[C@@]4(C)[C@]2(C)CC3)nc1C
IC50 (BGC-823): 4.47 µM | IC50 (HeLa): 7.69 µM | IC50 (HT-29): 4.77 µM | IC50 (HepG2): 2.32 µM

Cc1nc(C)c(COC(=O)[C@]23CCC(C)(C)C[C@H]2C2=CC[C@@H]4[C@@]5(C)CC[C@H](OC(=O)[C@@H](N)CO)C(C)(C)[C@@H]5CC[C@@]4(C)[C@]2(C)CC3)nc1C
IC50 (BGC-823): 4.89 µM | IC50 (HeLa): 5.21 µM | IC50 (HT-29): 4.82 µM | IC50 (HepG2): 4.78 µM

CCOC(=O)/C=C/c1ccc(OC(=O)[C@@]2(C)CC[C@]3(C)CC[C@]4(C)C(=CC(=O)[C@@H]5[C@@]6(C)CC[C@H](OC(=O)[C@@H](N)CC[Se]C)C(C)(C)[C@@H]6CC[C@]54C)[C@H]3C2)cc1
IC50 (MDA-MB-231): 1.86 µM | IC50 (MCF7): 2.42 µM | IC50 (TERT-RPE1): 7.08 µM

CC(=O)OC[C@@]1(C)[C@@H]2CC[C@]3(C)[C@H](CC=C4[C@@H]5[C@@H](C)[C@H](C)CC[C@]5(C(=O)N(C)O)CC[C@]43C)[C@@]2(C)C[C@@H](OC(C)=O)[C@@H]1OC(C)=O
IC50 (HeLa): 3.77 µM

CCOC(=O)/C=C/c1ccc(OC)c(OC(=O)[C@@]2(C)CC[C@]3(C)CC[C@]4(C)C(=CC(=O)[C@@H]5[C@@]6(C)CC[C@H](OC(=O)[C@@H](N)CCSC)C(C)(C)[C@@H]6CC[C@]54C)[C@H]3C2)c1
IC50 (MDA-MB-231): 4.67 µM | IC50 (MCF7): 8.81 µM | IC50 (TERT-RPE1): 12.5 µM

COC(=O)/C=C/c1ccc(OC(=O)[C@@]2(C)CC[C@]3(C)CC[C@]4(C)C(=CC(=O)[C@@H]5[C@@]6(C)CC[C@H](OC(=O)[C@@H](N)CC[Se]C)C(C)(C)[C@@H]6CC[C@]54C)[C@H]3C2)cc1
IC50 (MDA-MB-231): 6.27 µM | IC50 (MCF7): 6.02 µM | IC50 (TERT-RPE1): 6.33 µM

CCOC(=O)/C=C/c1ccc(OC)c(OC(=O)[C@@]2(C)CC[C@]3(C)CC[C@]4(C)C(=CC(=O)[C@@H]5[C@@]6(C)CC[C@H](OC(=O)[C@@H](N)CC[Se]C)C(C)(C)[C@@H]6CC[C@]54C)[C@H]3C2)c1
IC50 (MDA-MB-231): 3.27 µM | IC50 (MCF7): 6.93 µM | IC50 (TERT-RPE1): 10.1 µM

C[C@H]1[C@H](C)CC[C@]2(C(=O)OCCCCN3CCCC3)CC[C@]3(C)C(=CC[C@@H]4[C@@]5(C)CC[C@H](O)C(C)(C)[C@@H]5CC[C@]43C)[C@H]12
IC50 (BGC-823): 7.2 µM

Cc1nc(C)c(COC(=O)[C@]23CCC(C)(C)C[C@H]2C2=CC[C@@H]4[C@@]5(C)CC[C@H](OC(=O)[C@@H]6CCCN6)C(C)(C)[C@@H]5CC[C@@]4(C)[C@]2(C)CC3)nc1C
IC50 (BGC-823): 4.97 µM | IC50 (HeLa): 6.75 µM | IC50 (HT-29): 3.21 µM | IC50 (HepG2): 2.39 µM
